One data set concerns yearling carps. As to the kind of experiment: Test 8: Fish Toxicity. Format: in vivo. To be noted: 48 hours, concentration at which 1/2 of the test fishes were killed. How it is done:
(§1) A water tank having a width of 60 cm, a length of 30 cm and a height of 40 cm was filled with water, and 10 yearling carps having a body length of about 5 cm were set free in the tank and adapted to the environment in the tank. A test compound was applied so that the concentration in water was 10, 1, or 0.1 ppm. After 48 hours, the numbers of killed and living carps were counted and the influences on the fishes were examined.

For data set [1], the system named is second-instar larvae of tobacco cutworm. Description: whole plant or invertebrate. Format: in vivo. The note with it: foliar. How it is done:
To a mixture of 20 parts of the compound of the present invention and 20 parts of Sorpol SM-200 (registered trademark for the product supplied by Toho Chemical Industrial Co., Ltd.) was added 60 parts of xylol, and the mixture was sufficiently blended. The obtained emulsifiable concentrate was diluted at a predetermined concentration with distilled water, and the obtained dilution was used.
An emulsifiable concentrate of a test compound prepared according to the method described in Formulation Example 1 was diluted to a concentration of 100 or 20 ppm. Among the compounds of the present invention, the following compounds were used as the test compounds: (1), (l ), (3), (4), (6), (8), (9), (10), (11), (14), (15), (16), (17), (18), (19), (20), (21), (24), (27), (28), (29), (30), (33), (34), (35), (36), (38), (39), (40), (41), (42), (43), (47), (48), (50), (51), (52), (53), (54), (55), (56), (59), (60), (62), (63), (64), (65), (66), (67) and (68). Sweetpotato leaves were immersed in the dilution for 10 seconds, air-dried and placed in a plastic cup having a diameter of 10 cm. Then second-instar larvae of tobacco cutworm were set free in the cup. The cup was allowed to stand still in a thermostat chamber maintained at 25° C. After 48 hours, the numbers of killed and living larvae were counted and the mortality was calculated. The obtained result was expressed by an average value obtained from the mortality calculated in three test cups. Compounds of (b), (f) and (h) were tested as comparative compounds in the same manner as the compounds of the present invention.

Data set [2] concerns third-instar larvae of diamond back moth. As to the kind of experiment: Test 4: Effect on Diamond Back Moth. Format: in vivo. To be noted: Plutella xylostella, 24 hours. Summed up: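 Emulsifiable concentrate diluted in water to 100 or 20 ppm and sprayed at 3 ml per cup onto cabbage leaves holding 10 third-instar diamondback moth larvae. Dead and living larvae counted after 24 h; mortality averaged over three cups.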

The subject of the next data set is two-spotted spider mite. Description: Test 6: Effect on Two-Spotted Spider mite adults. Format: in vivo. To be noted: Tetranychus urticae; 500 ppm; adults; 24 hours; read-out: Mortality (%). The method, boiled down:
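Kidney bean leaf discs (15 mm) on wet cotton, each holding 10 adult mites, sprayed with 3 ml of a 500 ppm dilution of an emulsifiable concentrate. Kept at 25° C; dead adults counted after 24 hours to give mortality, averaged over three discs.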

The subject of data set [3] is Second-instar and fifth-instar larvae of tobacco cutworm. Description: Test 2: Tobacco Cutworm Larva Dipping Test. Format: in vivo.
The subject of another data set is green peach aphids. Description: Test 5: Effect on green peach Aphid. The note with it: Myzus persicae, 24 hours, mortality class, read-out: Insecticidal Activity. Format: in vivo.
The next data set has as its system German cockroach. As to the kind of experiment: Test 7: Effect on German Cockroach. To be noted: Blattella germanica, male adults, 24 hours, agonized and killed; for mortality at 10 mg/m2: 10 mg/m^2; for mortality at 50 mg/m2: 50 mg/m^2. Format: in vivo. Summed up: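 Dish bottoms were treated with 50 or 10 mg/m^2 of test compound and air-dried, then 10 male adult cockroaches were released per dish and held at 25° C. Agonized and killed adults were counted after 24 hours, averaged over two dishes.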

The next data set is described as follows: Test 8: Fish Toxicity. The note with it: carp, water, carps, concentration at which 1/2 of the test fishes were killed, read-out: Fish Toxicity, TLm48. Format: in vivo. As for the experimental part:
as §1

The nature of data set [4]: Test 9: Toxicity Test (acute oral, mice). The note with it: mouse, in vivo, po. The method, boiled down: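 Compound dissolved or suspended in corn oil was given orally to male mice of 19–23 g body weight, at 0.2 ml per 10 g. Deaths and effects were recorded after 7 days.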
Data set [5] concerns resistant green rice leafhopper (collected at Nakagawara). As to the kind of experiment: Test 3: Effect on Resistant Green Rice Leafhopper. Format: in vivo, Nephotettix cincticeps Uhler. To be noted: Nephotettix cincticeps, 24 h, read-out: Mortality (%) Green Rice Leafhopper Collected at Nakagawara. The method, boiled down:
(§2)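 Rice seedlings (2–3 leaves) sprayed with emulsifiable-concentrate dilutions at 100 or 20 ppm, 3 ml per pot, air-dried, then infested with 10 female adults per pot. Mortality counted after 24 h and averaged over three pots.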

Data set [6] relates to sensitive green rice leafhopper (collected at Chigasaki). As to the kind of experiment: Test 3: Effect on Sensitive Green Rice Leafhopper. Format: in vivo. The note with it: Nephotettix cincticeps, female adults, 24 hours. The method, boiled down: as §2
The mark [7] stands for this setting: 20 ppm, second-instar larvae, 48 hours, read-out: Mortality (%).
[8] abbreviates: 20 ppm, second-instar larvae, 24 hours, read-out: Mortality (%) Second-Instar Larvae.
The mark [9] stands for this setting: 100 ppm, second-instar larvae, 24 hours, read-out: Mortality (%) Second-Instar Larvae.
[10] abbreviates: topical, 24 h, read-out: Mortality (%) Fifth-Instar Larvae.

As usually defined, the LD50 is the dose expected to kill half of the subjects tested. Read a low LD50 as a more toxic substance.

≈ marks a conversion by molar mass, not a printed value. Where two headings read alike, the source gives them in different places. A value given as a limit tells only on which side of the number the result lay.

With “3-phenoxy-α-cyanobenzyl 2,2-dimethyl-3-(2,2-dichlorovinyl)-cyclopropano-1-carboxylate [(i), reference compound]”, in the data set with yearling carps, the “Fish Toxicity, TLm48” value was “below 0.005 ppm”.

Consider `CC(C)C(COCc1cccc(Oc2ccccc2)c1)c1ccc(Cl)cc1` (centres unmarked) [(b), reference compound], for which the mortality at 100 ppm turned out to be 50% in [1] (48 h) and 30% in data set [2]. Further, the mortality at 20 ppm in [1] (setting [7]) worked out at 0%; in data set [2] it was 10%. In the data set on two-spotted spider mite, the mortality at 500 ppm was determined as 20%.

Turning to `COP(=O)(NC(C)=O)SC` (centres unmarked) [(h), O,S-dimethyl N-acetylphosphoroamidothiolate], in data set [1] (48 h), the mortality at 20 ppm amounted to 30% and the mortality at 100 ppm is 70%.

As to `CNC(=O)ON=C(C)SC` [Comparative Compound (f), S-methyl N-(methylcarbamoyloxy)thioacetoamidate], in [1] (setting [7]), the mortality at 20 ppm is 80%. Besides, in data set [1] (100 ppm, second-instar larvae, 48 hours, read-out: Mortality (%)), the mortality at 100 ppm was found to be 100%.

For `CC(C)(COCc1ccc(F)c(Oc2ccc(F)cc2)c1)c1ccc(Cl)cc1` [Compound 1, 3-(4-Fluorophenoxy)-4-fluorobenzyl 2-(4-chlorophenyl)-2-methylpropyl ether], the mortality at 20 ppm in [3] (setting [8]) was found to be 80%; in [3] (setting [10]), 70%; in data set [2], 100%. For the same molecule, the mortality at 100 ppm in data set [3] (setting [9]) is 90%; in [3] (setting [10]), 80%; in data set [2] it was 100%; in the data set on green peach aphids, over 95%. In addition, the mortality at 500 ppm in the data set on two-spotted spider mite was determined as 100%. This molecule returned a mortality at 10 mg/m2 in the data set on German cockroach of 100%. In the data set with German cockroach, this molecule gave a mortality at 50 mg/m2 of 100%. Besides, the LC50 at 48 h in the data set “Test 8: Fish Toxicity” was about 1 mg/L (≈ 2.48 µM). This molecule yielded an LD50 at 168 h in data set [4] of over 500 mg/kg.

As for `CC(C)(COCc1ccc(Cl)c(Oc2ccccc2)c1)c1ccc(Cl)cc1` [Compound 3, 3-Phenoxy-4-chlorobenzyl 2-(4-chlorophenyl)-2-methylpropyl ether], the mortality at 20 ppm turned out to be 90% in data set [5], 80% in data set [6] and 100% in [2]. Also, the mortality at 100 ppm in data set [5] is 100%; in data set [6] it was 100%; in [2], 100%; with green peach aphids, over 95%. The mortality at 500 ppm in the data set with two-spotted spider mite amounted to 90%. The mortality at 10 mg/m2 in the data set on German cockroach turned out to be 90%. The mortality at 50 mg/m2 with German cockroach was determined as 100%. The LC50 at 48 h in “Test 8: Fish Toxicity” is over 10 mg/L. The LD50 at 168 h in data set [4] was over 500 mg/kg.

Regarding `CC(C)(CSCc1ccc(F)c(Oc2ccccc2)c1)c1ccc(Cl)cc1` [Compound 4, 3-Phenoxy-4-fluorobenzyl 2-(4-chlorophenyl)-2-methylpropyl thioether], in data set [2], the mortality at 20 ppm amounted to 90% and the mortality at 100 ppm came out at 100%. In addition, the mortality at 100 ppm in the data set with green peach aphids was over 95%. Further, in the data set with two-spotted spider mite, the mortality at 500 ppm stood at 90%. In the data set on German cockroach, this molecule registered a mortality at 10 mg/m2 of 90% and a mortality at 50 mg/m2 of 100%. Further, the LC50 at 48 h in the data set “Test 8: Fish Toxicity” was over 0.5 mg/L. The molecule also gave an LD50 at 168 h in data set [4] of over 500 mg/kg.

`CCC(COCc1ccc(F)c(Oc2ccccc2)c1)c1ccc(Cl)cc1` (centres unmarked) [Compound 6, 3-Phenoxy-4-fluorobenzyl 2-(4-chlorophenyl)-butyl ether]: the mortality at 20 ppm in data set [3] (setting [8]) came out at 90%; in [3] (setting [10]), 85%; in [5], 100%; in [6], 100%; in data set [2] it was 100%. The mortality at 100 ppm in data set [3] (setting [9]) is 100%; in data set [3] (setting [10]), 100%; in data set [5] it was 100%; in data set [6] it was 100%; in data set [2], 100%; with green peach aphids it was over 95%. In the data set with two-spotted spider mite, the mortality at 500 ppm turned out to be 100%. The same molecule displayed a mortality at 10 mg/m2 in the data set on German cockroach of 100%. Also, the mortality at 50 mg/m2 in the data set on German cockroach stood at 100%. Further, the LC50 at 48 h in “Test 8: Fish Toxicity” was over 1 mg/L. Also, the LD50 at 168 h in [4] is over 500 mg/kg.

For `CC(C)(COCc1ccc(F)c(Oc2ccccc2)c1)c1ccc(Cl)cc1` [Compound 10, 3-phenoxy-4-fluorobenzyl 2-(4-chlorophenyl)-2-methylpropyl ether], the mortality at 20 ppm in [3] (setting [8]), in data set [3] (setting [10]), in [5], in data set [6] and in data set [2] was 100% in each case. The mortality at 100 ppm in data set [3] (setting [9]) was 100%; in data set [3] (setting [10]) it was 100%; in data set [5] it was 100%; in data set [6], 100%; in data set [2], 100%; with green peach aphids, over 95%. In addition, the mortality at 500 ppm in the data set with two-spotted spider mite turned out to be 100%. In the data set with German cockroach, this molecule returned a mortality at 10 mg/m2 of 100%. The molecule further registered a mortality at 50 mg/m2 in the data set with German cockroach of 100%. For the same molecule, the LC50 at 48 h in the data set “Test 8: Fish Toxicity” was over 0.1 mg/L. The same molecule showed an LD50 at 168 h in data set [4] of over 500 mg/kg.

As for `CC(C)(COCc1ccc(F)c(Oc2ccc(Br)cc2)c1)c1ccc(Cl)cc1` [Compound 15, 3-(4-bromophenoxy)-4-fluorobenzyl 2-(4-chlorophenyl)-2-methylpropyl ether], the mortality at 20 ppm in data set [3] (setting [8]), in data set [3] (setting [10]) and in data set [2] was 100% each time. The mortality at 100 ppm in [3] (setting [9]) was 100%; in data set [3] (setting [10]) it was 100%; in data set [2], 100%; with green peach aphids, over 95%. In the data set with two-spotted spider mite, the mortality at 500 ppm came out at 100%. In the data set with German cockroach, this molecule registered a mortality at 10 mg/m2 of 100%. For the same molecule, in the data set on German cockroach, the mortality at 50 mg/m2 was found to be 100%. Also, the LC50 at 48 h in “Test 8: Fish Toxicity” was over 10 mg/L. Besides, the LD50 at 168 h in [4] was over 500 mg/kg.

As to `CC(C)(COCc1ccc(F)c(Oc2ccccc2)c1)c1ccc(Br)cc1` [Compound 18, 3-Phenoxy-4-fluorobenzyl 2-(4-bromophenyl)-2-methylpropyl ether], in data set [2], the mortality at 20 ppm came to 100% and the mortality at 100 ppm came out at 100%. Further, the mortality at 100 ppm in the data set on green peach aphids was over 95%. Moreover, in the data set with two-spotted spider mite, the mortality at 500 ppm is 100%. In the data set on German cockroach, this molecule returned a mortality at 10 mg/m2 of 100% and a mortality at 50 mg/m2 of 100%. The LC50 at 48 h in “Test 8: Fish Toxicity” is over 0.1 mg/L. The molecule also came in with an LD50 at 168 h in [4] of over 500 mg/kg.

Regarding `CC(C)(COCc1ccc(F)c(Oc2ccccc2)c1)c1ccc(-c2ccccc2)cc1` [Compound 61, 3-Phenoxy-4-fluorobenzyl 2-(4-biphenyl)-2-methylpropyl ether], in data set [5], the mortality at 20 ppm worked out at 100% and the mortality at 100 ppm is 100%. In [6], this molecule displayed a mortality at 20 ppm of 100% and a mortality at 100 ppm of 100%. Also, the mortality at 100 ppm in the data set with green peach aphids was over 95%. For the same molecule, the mortality at 500 ppm in the data set on two-spotted spider mite was found to be 100%. In the data set with German cockroach, this molecule registered a mortality at 10 mg/m2 of 85% and a mortality at 50 mg/m2 of 100%. In addition, the LC50 at 48 h in the data set “Test 8: Fish Toxicity” was over 1 mg/L. Moreover, the LD50 at 168 h in [4] was over 500 mg/kg.

The record behind these values is patent publication US4599362A, “2-aryl-ethyl ether derivatives and insecticidal and acaricidal agents containing said derivatives” (priority 1980, dated 1986).
